Laboratory results reported in patent US9321790B2, “Pyrimidinone derivatives as antimalarial agents” (SANOFI, priority 2012, dated 2016).

Tests used:
[1] = tested on: Plasmodium falciparum (strain NF54); assay: Antimalarial activity test: growth of Plasmodium falciparum in infected human erythrocytes, 3H-hypoxanthine incorporation; assay type: cell-based; settings: strain NF54 sensitive to chloroquine, 72 h total incubation
Summary of the method: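 Chloroquine-sensitive NF54 parasites in human erythrocytes (1.25% hematocrit, 0.15% parasitemia) were grown in hypoxanthine-free RPMI 1640 with HEPES and Albumax II, with compound in twofold serial dilution, at 37 °C under 93% N2/4% CO2/3% O2. After 48 h, 3H-hypoxanthine (0.5 μCi) was added for 24 h. Scintillation counts versus drug-free control gave IC50.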

human PI3Kα = human PI3Kα (Homo sapiens (Human), UniProt P42336); assay: Human PI3Kα activity test (luciferin/luciferase ATP consumption, KinaseGlo); assay type: biochemical; settings: PI3Kα (p110α/p85α), 50 μM PIP2, 2 μM ATP, 90 minutes; read-out: IC50 Human PI3Kα
Description: The test uses a luciferin/luciferase system to measure the concentration of ATP and its consumption during the enzymatic reaction.
After 90 minutes, the reaction is quenched by adding 20 μl/well of KinaseGlo reagent (Promega V6713). After 10 minutes in the dark, the luminescence is read using a PHERAStar microplate reader (reading at 0.8 sec/well).

[2] = Plasmodium falciparum, Erythrocyte

Chain of human PI3Kα (P42336 whole entry): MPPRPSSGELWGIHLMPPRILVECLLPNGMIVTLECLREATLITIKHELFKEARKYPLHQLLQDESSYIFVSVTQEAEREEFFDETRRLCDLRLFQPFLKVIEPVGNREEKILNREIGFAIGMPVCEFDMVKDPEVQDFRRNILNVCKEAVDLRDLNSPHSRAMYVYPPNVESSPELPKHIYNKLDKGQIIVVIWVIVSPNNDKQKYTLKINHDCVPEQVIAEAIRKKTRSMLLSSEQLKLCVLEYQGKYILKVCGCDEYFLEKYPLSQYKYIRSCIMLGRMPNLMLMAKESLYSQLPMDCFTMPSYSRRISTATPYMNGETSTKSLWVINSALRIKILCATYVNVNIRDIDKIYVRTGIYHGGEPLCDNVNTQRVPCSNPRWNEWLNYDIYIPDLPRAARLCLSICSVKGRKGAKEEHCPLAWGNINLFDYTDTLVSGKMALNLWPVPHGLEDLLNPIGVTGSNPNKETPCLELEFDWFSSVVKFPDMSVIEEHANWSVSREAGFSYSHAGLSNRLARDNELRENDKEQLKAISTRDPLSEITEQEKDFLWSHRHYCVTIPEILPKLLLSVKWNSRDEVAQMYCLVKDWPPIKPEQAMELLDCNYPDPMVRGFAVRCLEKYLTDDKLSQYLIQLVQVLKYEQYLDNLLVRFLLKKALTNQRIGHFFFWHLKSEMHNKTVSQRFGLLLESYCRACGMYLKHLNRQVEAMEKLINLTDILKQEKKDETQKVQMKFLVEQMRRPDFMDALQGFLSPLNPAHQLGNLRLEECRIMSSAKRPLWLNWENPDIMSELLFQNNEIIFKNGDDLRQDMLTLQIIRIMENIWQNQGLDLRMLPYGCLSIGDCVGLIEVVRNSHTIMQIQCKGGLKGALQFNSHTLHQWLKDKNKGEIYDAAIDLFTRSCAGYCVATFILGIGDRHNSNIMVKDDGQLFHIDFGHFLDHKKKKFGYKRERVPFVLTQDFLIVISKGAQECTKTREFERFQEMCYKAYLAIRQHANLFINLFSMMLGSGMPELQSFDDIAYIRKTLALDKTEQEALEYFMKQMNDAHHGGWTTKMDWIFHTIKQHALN
Chain of human PI3Kα (P27986 whole entry partner): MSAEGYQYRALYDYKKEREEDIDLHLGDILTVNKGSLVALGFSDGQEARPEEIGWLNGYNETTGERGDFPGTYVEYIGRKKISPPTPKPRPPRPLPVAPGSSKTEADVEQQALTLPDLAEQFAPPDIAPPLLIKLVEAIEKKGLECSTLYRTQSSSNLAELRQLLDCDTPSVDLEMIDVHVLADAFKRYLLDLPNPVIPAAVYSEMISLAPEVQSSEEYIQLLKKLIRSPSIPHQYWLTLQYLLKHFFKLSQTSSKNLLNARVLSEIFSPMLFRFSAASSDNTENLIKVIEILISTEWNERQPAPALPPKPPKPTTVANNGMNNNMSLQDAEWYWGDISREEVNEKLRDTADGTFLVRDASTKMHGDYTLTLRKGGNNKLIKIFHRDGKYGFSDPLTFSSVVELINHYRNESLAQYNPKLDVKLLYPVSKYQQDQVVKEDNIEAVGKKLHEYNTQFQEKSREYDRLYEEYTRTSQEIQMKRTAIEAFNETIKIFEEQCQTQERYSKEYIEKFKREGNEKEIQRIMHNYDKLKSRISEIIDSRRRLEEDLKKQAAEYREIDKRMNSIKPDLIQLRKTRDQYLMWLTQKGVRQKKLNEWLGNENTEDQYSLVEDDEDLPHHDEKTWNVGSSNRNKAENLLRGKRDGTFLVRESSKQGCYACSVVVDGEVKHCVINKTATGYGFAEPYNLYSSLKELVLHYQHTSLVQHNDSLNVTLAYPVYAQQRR

| Structure (SMILES) | IC50 [1, 2] | IC50 (human PI3Kα) | IC50 [1] |
| --- | --- | --- | --- |
| Cc1cc(C(=O)CN2c3nc(N4C[C@@H]5C[C@H]4CO5)cc(=O)n3CC[C@H]2C(F)(F)F)cnc1N [Compound 31, (8S)-9-[2-(6-Amino-5-methylpyrid-3-yl)-2-oxoethyl]-2-(1S,4S)-2-oxa-5-azabicyclo[2.2.1]hept-5-yl-8-trifluoromethyl-6,7,8,9-tetrahydropyrimido[1,2-a]pyrimidin-4-one] | 75 nM | 6350 nM |  |
| O=C(CN1c2nc(N3C[C@@H]4C[C@H]3CO4)cc(=O)n2CC[C@H]1C(F)(F)F)c1ccc2snnc2c1 [Compound 47, (8S)-9-(2-benzo[1,2,3]thiadiazol-5-yl-2-oxoethyl)-2-(1S,4S)-2-oxa-5-azabicyclo[2.2.1]hept-5-yl-8-trifluoromethyl-6,7,8,9-tetrahydropyrimido[1,2-a]pyrimidin-4-one] | 13 nM | > 10000 nM |  |
| O=C(CN1c2nc(N3C[C@@H]4C[C@H]3CO4)cc(=O)n2CC[C@H]1C(F)(F)F)c1cncc(Cl)c1 [Compound 44, (8S)-9-[2-(5-Chloropyrid-3-yl)-2-oxoethyl]-2-(1S,4S)-2-oxa-5-azabicyclo[2.2.1]hept-5-yl-8-trifluoromethyl-6,7,8,9-tetrahydropyrimido[1,2-a]pyrimidin-4-one] | 106 nM | > 10000 nM |  |
| Cc1ncsc1CCN1c2nc(N3C[C@@H]4C[C@H]3CO4)cc(=O)n2C[C@@]1(C)C(F)(F)F [Compound 26, 2-methyl-1-[2-(4-methylthiazol-5-yl)ethyl]-7-(1S,4S)-2-oxa-5-azabicyclo[2.2.1]hept-5-yl-2-((S)-trifluoromethyl)-2,3-dihydro-1H-imidazo[1,2-a]pyrimidin-5-one] | 10 nM | 2000 nM |  |
| CC(=O)N1CCC(CCN2c3nc(N4C[C@@H]5C[C@H]4CO5)cc(=O)n3CC[C@H]2C(F)(F)F)CC1 [Compound 89, (S)-9-[2-(1-Acetylpiperid-4-yl)ethyl]-2-(1S,4S)-2-oxa-5-azabicyclo[2.2.1]hept-5-yl-8-trifluoromethyl-6,7,8,9-tetrahydropyrimido[1,2-a]pyrimidin-4-one] | 3.4 nM | 2800 nM |  |
| O=c1cc(N2C[C@@H]3C[C@H]2CO3)nc2n1CC[C@@H](C(F)(F)F)N2CCC1(O)CC1 [Compound 105, (8S)-9-[2-(1-Hydroxycyclopropyl)ethyl]-2-(1S,4S)-2-oxa-5-azabicyclo[2.2.1]hept-5-yl-8-trifluoromethyl-6,7,8,9-tetrahydropyrimido[1,2-a]pyrimidin-4-one] | 24 nM | 1900 nM |  |
| Cc1nocc1C(=O)CN1c2nc(N3C[C@@H]4C[C@H]3CO4)cc(=O)n2CC[C@H]1C(F)(F)F [Compound 46, (8S)-9-[2-(3-Methylisoxazol-4-yl)-2-oxoethyl]-2-(1S,4S)-2-oxa-5-azabicyclo[2.2.1]hept-5-yl-8-trifluoromethyl-6,7,8,9-tetrahydropyrimido[1,2-a]pyrimidin-4-one] | 398 nM | > 10000 nM |  |
| Cc1n[nH]c(C)c1CCN1c2nc(N3C[C@@H]4C[C@H]3CO4)cc(=O)n2CC[C@H]1C(F)(F)F [Compound 27, (8S)-9-[2-(3,5-Dimethyl-1H-pyrazol-4-yl)ethyl]-2-(1S,4S)-2-oxa-5-azabicyclo[2.2.1]hept-5-yl-8-trifluoromethyl-6,7,8,9-tetrahydropyrimido[1,2-a]pyrimidin-4-one] | < 4.5 nM | 1530 nM |  |
| O=c1cc(N2C[C@@H]3C[C@H]2CO3)nc2n1CC[C@@H](C(F)(F)F)N2CC1(O)CC1 [Compound 104, (8S)-9-(1-hydroxycyclopropylmethyl)-2-(1S,4S)-2-oxa-5-azabicyclo[2.2.1]hept-5-yl-8-trifluoromethyl-6,7,8,9-tetrahydropyrimido[1,2-a]pyrimidin-4-one] | 12 nM | 930 nM |  |
| O=c1cc(N2C[C@@H]3C[C@H]2CO3)nc2n1CC[C@@H](C(F)(F)F)N2Cc1cccc2ncccc12 [Compound 106, (8S)-2-(1S,4S)-2-oxa-5-azabicyclo[2.2.1]hept-5-yl-9-quinolin-5-ylmethyl-8-trifluoromethyl-6,7,8,9-tetrahydropyrimido[1,2-a]pyrimidin-4-one] | 13 nM | > 10000 nM |  |
| O=c1cc(N2C[C@@H]3C[C@H]2CO3)nc2n1CC[C@@H](C(F)(F)F)N2CC(O)(C1CC1)C1CC1 [Compound 103, (8S)-9-(2,2-Dicyclopropyl-2-hydroxyethyl)-2-(1S,4S)-2-oxa-5-azabicyclo[2.2.1]hept-5-yl-8-trifluoromethyl-6,7,8,9-tetrahydropyrimido[1,2-a]pyrimidin-4-one] | 75 nM | 840 nM |  |
| COC(=O)Nc1ccc(C(=O)CN2c3nc(N4C[C@@H]5C[C@H]4CO5)cc(=O)n3CC[C@H]2C(F)(F)F)cn1 [Compound 58, {5-[2-((S)-8-(1S,4S)-2-Oxa-5-azabicyclo[2.2.1]hept-5-yl-6-oxo-2-trifluoromethyl-3,4-dihydro-2H,6H-pyrimido[1,2-a]pyrimidin-1-yl)acetyl]pyrid-2-yl}carbamic acid methyl ester] |  | 6400 nM | 53 nM |
| O=c1cc(N2CC3CCC(C2)O3)nc2n1CC[C@@H](C(F)(F)F)N2Cc1ccn(C(F)F)n1 [Compound 86, (8S)-9-(1-Difluoromethyl-1H-pyrazol-3-ylmethyl)-2-(8-oxa-3-azabicyclo[3.2.1]oct-3-yl)-8-trifluoromethyl-6,7,8,9-tetrahydropyrimido[1,2-a]pyrimidin-4-one] | 170 nM | 7300 nM |  |
| CN(C)CCOc1ccc(CCN2c3nc(N4CC5CCC(C4)O5)cc(=O)n3C[C@@]2(C)C(F)(F)F)cc1 [Compound 74, (S)-1-{2-[4-(2-dimethylaminoethoxy)phenyl]ethyl}-2-methyl-7-(8-oxa-3-azabicyclo[3.2.1]oct-3-yl)-2-trifluoromethyl-2,3-dihydro-1H-imidazo[1,2-a]pyrimidin-5-one] | 68 nM | 820 nM |  |
| O=C(CN1c2nc(N3CC4CCC(C3)O4)cc(=O)n2CC[C@H]1C(F)(F)F)c1ccncc1 [Compound 75, (8S)-2-(8-oxa-3-azabicyclo[3.2.1]oct-3-yl)-9-(2-oxo-2-pyrid-4-ylethyl)-8-trifluoromethyl-6,7,8,9-tetrahydropyrimido[1,2-a]pyrimidin-4-one] | 80 nM | ≥ 10000 nM |  |
| O=c1cc(N2C[C@@H]3C[C@H]2CO3)nc2n1CC[C@@H](C(F)(F)F)N2CC(O)(C(F)(F)F)C(F)(F)F [Compound 96, (8S)-2-(1S,4S)-2-oxa-5-azabicyclo[2.2.1]hept-5-yl-9-(3,3,3-trifluoro-2-hydroxy-2-trifluoromethylpropyl)-8-trifluoromethyl-6,7,8,9-tetrahydropyrimido[1,2-a]pyrimidin-4-one] | 170 nM | 8500 nM |  |
| C[C@@]1(C(F)(F)F)Cn2c(nc(N3C[C@@H]4C[C@H]3CO4)cc2=O)N1CCc1cccnc1 [Compound 13, 2-Methyl-7-(1S,4S)-2-oxa-5-azabicyclo[2.2.1]hept-5-yl-1-(2-pyrid-3-ylethyl)-2-((S)-trifluoromethyl)-2,3-dihydro-1H-imidazo[1,2-a]pyrimidin-5-one] |  | 5750 nM | 21 nM |
| O=c1cc(N2C[C@@H]3C[C@H]2CO3)nc2n1CC[C@@H](C(F)(F)F)N2CCC(O)(C(F)(F)F)C(F)(F)F [Compound 97, (8S)-2-(1S,4S)-2-Oxa-5-azabicyclo[2.2.1]hept-5-yl-9-(4,4,4-trifluoro-3-hydroxy-3-trifluoromethylbutyl)-8-trifluoromethyl-6,7,8,9-tetrahydropyrimido[1,2-a]pyrimidin-4-one] |  | 440 nM | 30 nM |
| CCOC(=O)Nc1ccc(C(=O)CN2c3nc(N4C[C@@H]5C[C@H]4CO5)cc(=O)n3CC[C@H]2C(F)(F)F)cn1 [Compound 57, ethyl {5-[2-((S)8-(1S,4S)-2-oxa-5-azabicyclo[2.2.]hept-5-yl-6-oxo-2-trifluoromethyl-3,4-dihydro-2H,6H-pyrimido[1,2-a]pyrimidin-1-yl)acetyl]pyrid-2-yl}carbamate] | 65 nM | > 10000 nM |  |
| O=C(CN1c2nc(N3C[C@@H]4C[C@H]3CO4)cc(=O)n2CC[C@H]1C(F)(F)F)c1ccc2nsnc2c1 [Compound 61, (8S)-9-(2-Benzo[1,2,5]thiadiazol-5-yl-2-oxoethyl)-2-(1S,4S)-2-oxa-5-azabicyclo[2.2.1]hept-5-yl-8-trifluoromethyl-6,7,8,9-tetrahydropyrimido[1,2-a]pyrimidin-4-one] | 130 nM | > 10000 nM |  |
| CNc1ccc(C(=O)CN2c3nc(N4C[C@@H]5C[C@H]4CO5)cc(=O)n3CC[C@H]2C(F)(F)F)cn1 [Compound 5, (8S)-9-[2-(6-methylaminopyrid-3-yl)-2-oxoethyl]-2-(1S,4S)-2-oxa-5-azabicyclo[2.2.1]hept-5-yl-8-trifluoromethyl-6,7,8,9-tetrahydropyrimido[1,2-a]pyrimidin-4-one] | 95 nM | 8200 nM |  |
| CC(C)(C)C(=O)CN1c2nc(N3C[C@@H]4C[C@H]3CO4)cc(=O)n2CC[C@H]1C(F)(F)F [Compound 29, (8S)-9-(3,3-dimethyl-2-oxobutyl)-2-(1S,4S)-2-oxa-5-azabicyclo[2.2.1]hept-5-yl-8-trifluoromethyl-6,7,8,9-tetrahydropyrimido[1,2-a]pyrimidin-4-one] | 46 nM | 7930 nM |  |
| CON(C)C(=O)CN1c2nc(N3C[C@@H]4C[C@H]3CO4)cc(=O)n2CC[C@H]1C(F)(F)F [Compound 112, N-Methoxy-N-methyl-2-((S)-8-(1S,4S)-2-oxa-5-azabicyclo[2.2.1]hept-5-yl-6-oxo-2-trifluoromethyl-3,4-dihydro-2H,6H-pyrimido[1,2-a]pyrimidin-1-yl)acetamide] |  | > 10000 nM | 200 nM |
